This is an account of results in PMC12566520, “Targeted Modification of the Antimicrobial Peptide DGL13K Reveals a Naturally Optimized Sequence for Topical Applications” (Microorganisms, 2025).

Where two headings read alike, the source gives them in different places. Square brackets hold non-standard residues; d marks the D form. Ends that are not written are not given here. Peptide text beside a SMILES is read from it. d(aIle) = CC[C@H](C)[C@@H](N)C(=O)O; aIle = CC[C@@H](C)[C@H](N)C(=O)O

Series [1] deals with Pseudomonas aeruginosa Xen41. In kind it is cell-based. Conditions: for MIC P. aeruginosa: overnight 37 °C, OD630. The method, then:
(§1) Pseudomonas aeruginosa Xen41 and Staphylococcus aureus Xen36 were obtained from Xenogen (Alameda, CA; now Revvity, Waltham, MA, USA) and Revvity, respectively, and stored at −80 °C in 10% glycerol. P. aeruginosa were cultured in Luria-Bertani broth while S. aureus were cultured in Todd-Hewitt Broth (Difco, Franklin Lakes, NJ, USA) overnight at 37 °C and shaking at 200 rpm. Cultures typically reached an optical density at 600 nm of 1.7 for P. aeruginosa and 1.3 for S. aureus.
(§2) MIC assays were performed as previously described. Briefly, overnight cultures of P. aeruginosa Xen41 were diluted to 10^5 CFU/mL in Mueller-Hinton Broth (Difco) while S. aureus Xen36 were similarly diluted in Todd-Hewitt Broth. Bacteria (100 µL) were added to 20 µL of 2-fold peptide dilutions in 10% PBS in 96-well polypropylene culture plates. The plates were incubated overnight at 37 °C with gentle rocking and then the optical density at 630 nm (OD630) was recorded in a BioTek Synergy HT plate reader (BioTek, Winooski, VT, USA; now Agilent, Santa Clara, CA, USA). Bioluminescence was recorded for quality control of the bioluminescent bacteria.

For series [2], the system named is Staphylococcus aureus Xen36. In kind it is cell-based. Conditions: for MIC S. aureus: overnight 37 °C, OD630; for Antibacterial activity against S. aureus compared with unmodified peptide (in words): MIC assay. The method, then: as §1, §2
Series [3] relates to P. aeruginosa. The series can be described thus: Heat stability (MIC assay after heating). Conditions: 1 mg/mL in 10% PBS, 80 °C for 60 min vs room temperature; read-out MIC assay against P. aeruginosa; duplicates, N = 2, repeated with similar results. In kind it is physicochemical, Pseudomonas aeruginosa. The method, then: Peptides were diluted to 1 mg/mL in sterile 10% PBS (1 part PBS, 9 parts dH2O) and heated for 60 min in a 0.5 mL microcentrifuge tube in a water bath set at 80 °C. Control samples were similarly incubated at room temperature. The samples were used for MIC assays, as described below.
as §2
Figure 1 Heat stability of GL13K peptides. LGL13K (circles) or DGL13K (boxes) were incubated for 1 h at room temperature (open symbols) or 80 °C (closed symbols) and then used for an MIC assay against P. aeruginosa. Duplicate samples were tested and plotted as mean ± range, N = 2. The experiment was repeated with similar results.

Series [4] concerns human red blood cells. Conditions: cited from earlier work. An excerpt: The selective activity of many AMPs exploits the compositional differences between prokaryotic and eukaryotic membranes to avoid mammalian cell toxicity. The selectivity of AMPs is typically determined as the ratio between the hemolytic concentration and the MIC of the AMP (therapeutic index). One measure of the hemolytic activity is the peptide concentration leading to 50% lysis of red blood cells (HC50 = hemolytic concentration 50). This assay is routinely used for screening purposes and the lack of red cell toxicity is an important consideration for IV delivery of an AMP. ...

For series [5] the following is noted: aqueous stock 10 mg/mL in dH2O or 0.01% acetic acid, 4 °C, more than 2 years; cited from earlier work. An excerpt:
Peptides are typically considered inherently unstable in aqueous solutions [57].

The test system of series [6] is P. aeruginosa. Details: method as in PMID 23917321. The following applies: bacterial proteases, cultures of Gram-negative P. aeruginosa; cited from earlier work.
In series [7] the test system is Enterococcus faecalis. Conditions: cited from earlier work. An excerpt:
Proteolytic processing of AMPs has been cited as a concern for their development for clinical use. DGL13K was originally designed to overcome proteolytic processing of the L-enantiomer in cultures of P. aeruginosa.

For series [8] the following is noted: cited from earlier work.
[9] abbreviates: Table 2, Xen41, 10^5 CFU/mL in Mueller-Hinton Broth, median MIC of 1–3 independent experiments.
The mark [10] stands for this setting: Table 2, Xen36, 10^5 CFU/mL in Todd-Hewitt Broth, median MIC of 1–3 independent experiments.
Setting [11] is: Table 3, Xen41, Mueller-Hinton Broth, median MIC of 2–4 independent experiments, values outside tested range set at 1000 µg/mL.
Setting [12] is: Table 3, Xen36, Todd-Hewitt Broth, median MIC of 2–4 independent experiments, values outside tested range set at 1000 µg/mL.

Regarding `CC[C@H](C)[C@@H](NC(=O)[C@@H](CCCCN)NC(=O)CN)C(=O)N[C@@H](C(=O)N[C@H](CCCCN)C(=O)N[C@H](CC(C)C)C(=O)N[C@H](CCCCN)C(=O)N[C@H](C)C(=O)N[C@H](CO)C(=O)N[C@H](CC(C)C)C(=O)N[C@H](CCCCN)C(=O)N[C@H](CC(C)C)C(=O)N[C@H](CC(C)C)C(N)=O)[C@@H](C)CC` [D-allo-Ile GL13K] (H-G[dK][d(aIle)][d(aIle)][dK][dL][dK][dA][dS][dL][dK][dL][dL]-NH2; N-terminus assumed), in series [1] (setting [9]), the “MIC P. aeruginosa” value is 5.2 mg/L. The “MIC S. aureus” value in series [2] (setting [10]) is 2.6 mg/L.
On to `CC[C@@H](C)[C@@H](NC(=O)[C@@H](Cc1c[nH]c2ccccc12)NC(=O)[C@@H](CCCCN)NC(=O)[C@@H](CCCCN)NC(=O)CN)C(=O)N[C@H](CCCCN)C(=O)N[C@H](CCCCN)C(=O)N[C@H](C)C(=O)N[C@H](CO)C(=O)N[C@H](CCCCN)C(=O)N[C@H](Cc1c[nH]c2ccccc12)C(=O)N[C@H](CC(C)C)C(=O)O` [DGL12W] (H-G[dK][dK][dW][dI][dK][dK][dA][dS][dK][dW][dL]-OH; N-terminus assumed), for which the “MIC P. aeruginosa” value in series [1] (setting [11]) is 13 mg/L. For the same compound, the “Antibacterial activity against S. aureus compared with unmodified peptide (in words)” value in series [2] is listed as “lost its activity”.
Turning to `CC[C@@H](C)[C@@H](NC(=O)[C@@H](CCCCN)NC(=O)CN)C(=O)N[C@@H](C(=O)N[C@H](CCCCN)C(=O)N[C@H](CC(C)C)C(=O)N[C@H](CCCCN)C(=O)N[C@H](C)C(=O)N[C@H](CO)C(=O)N[C@H](CC(C)C)C(=O)N[C@H](CCCCN)C(=O)N[C@H](CC(C)C)C(=O)N[C@H](CC(C)C)C(N)=O)[C@H](C)CC` [DGL13K] (H-G[dK][dI][dI][dK][dL][dK][dA][dS][dL][dK][dL][dL]-NH2; N-terminus assumed), the “MIC P. aeruginosa” value came to 7.8 mg/L in series [1] (setting [9]) and 5.2 mg/L in series [1] (setting [11]). Moreover, the “MIC S. aureus” value in series [2] (setting [10]) came out at 2.6 mg/L; in series [2] (setting [12]) it was 1.3 mg/L. Also, in series [3], the “Loss of activity after heating of solution” value is “no loss of activity”. In addition, in series [4], the “HC50 (peptide concentration leading to 50% lysis of red blood cells)” value was 500 to 1000 µg/mL. Besides, the “Loss of antibacterial activity of aqueous solution after storage” value in series [5] is “did not lose antibacterial activity”. For the same compound, the “Proteolytic degradation in cultures of P. aeruginosa” value in series [6] is listed as “not degraded”. Further, in series [7], the “Proteolytic degradation in cultures of Enterococcus faecalis” value is on record as “resists proteolytic degradation”. Moreover, in series [8], the stability of aqueous solution (no loss of antibacterial activity) is over 2 years.
As to `CC[C@@H](C)[C@@H](NC(=O)[C@@H](CCCNC(=N)N)NC(=O)CN)C(=O)N[C@@H](C(=O)N[C@H](CCCNC(=N)N)C(=O)N[C@H](CC(C)C)C(=O)N[C@H](CCCNC(=N)N)C(=O)N[C@H](C)C(=O)N[C@H](CO)C(=O)N[C@H](CC(C)C)C(=O)N[C@H](CCCNC(=N)N)C(=O)N[C@H](CC(C)C)C(=O)N[C@H](CC(C)C)C(N)=O)[C@H](C)CC` [DGL13R] (H-G[dR][dI][dI][dR][dL][dR][dA][dS][dL][dR][dL][dL]-NH2; N-terminus assumed), the “Antibacterial activity against S. aureus compared with unmodified peptide (in words)” value in series [2] is reported as “not different from the parent peptide”. Further, the “MIC S. aureus” value in series [2] (setting [12]) came out at 2.6 mg/L.
Consider `CC[C@@H](C)[C@H](NC(=O)[C@H](CCCCN)NC(=O)CN)C(=O)N[C@H](C(=O)N[C@@H](CCCCN)C(=O)N[C@@H](CC(C)C)C(=O)N[C@@H](CCCCN)C(=O)N[C@@H](C)C(=O)N[C@@H](CO)C(=O)N[C@@H](CC(C)C)C(=O)N[C@@H](CCCCN)C(=O)N[C@@H](CC(C)C)C(=O)N[C@@H](CC(C)C)C(N)=O)[C@H](C)CC` [L-allo-Ile GL13K] (H-GK[aIle][aIle]KLKASLKLL-NH2; N-terminus assumed), for which the “MIC P. aeruginosa” value in series [1] (setting [9]) turned out to be 10.4 mg/L. Further, in series [2] (setting [10]), the “MIC S. aureus” value was 83.3 mg/L.
For GKIIKLKASLKLL-NH2 [LGL13K], the “MIC P. aeruginosa” value in series [1] (setting [9]) was 10.4 mg/L. The “MIC S. aureus” value in series [2] (setting [10]) was found to be 83.3 mg/L. Further, in series [4], the “HC50 (peptide concentration leading to 50% lysis of red blood cells)” value is 500 to 1000 µg/mL. Further, in series [6], the “Proteolytic degradation in cultures of P. aeruginosa” value is listed as “susceptible to bacterial proteases”.
Take “GKIIKLKASLKLL-NH2 [PEG-LGL13K, N-terminally PEGylated version of LGL13K]”: the “Fold increase in MIC for P. aeruginosa versus unmodified parent peptide” value in series [1] (compared with DGL13K (or LGL13K for PEG-LGL13K), Figure 4 / Table 3) was “three-fold”. The “Fold increase in MIC for S. aureus versus unmodified parent peptide” value in series [2] (compared with DGL13K (or LGL13K for PEG-LGL13K), Figure 4) was “two”.
